test system: COS-1 cells; experiment: In vitro mammalian cytotoxicity assay (Resazurin)

Compound | In Vitro Cytotoxicity
CCOc1ccccc1-c1ccc(O)c2c1C[C@@]1(N)C[C@@]3(N)[C@H](N(C)C)C(O)=C(C(N)=O)C(=O)[C@@]3(C#N)C(O)=C1C2=O [ER] | ** (toxicities less than 25 μg/mL are represented by **)
COc1cc(-c2ccc(O)c3c2C[C@@]2(N)C[C@@]4(N)[C@H](N(C)C)C(O)=C(C(N)=O)C(=O)[C@@]4(C#N)C(O)=C2C3=O)cc(OC)c1OC [OK] | ** (toxicities less than 25 μg/mL are represented by **)
COc1ccc(-c2ccc(O)c3c2C[C@@]2(N)C[C@@]4(N)[C@H](N(C)C)C(O)=C(C(N)=O)C(=O)[C@@]4(C#N)C(O)=C2C3=O)c(OC)c1OC [RT] | ** (toxicities less than 25 μg/mL are represented by **)
CN(C)[C@@H]1C(O)=C(C(N)=O)C(=O)[C@@]2(C#N)C(O)=C3C(=O)c4c(O)cccc4[C@H](CSCc4ccccc4)[C@@]3(N)[C@H](O)[C@@]12N [DH] | ** (toxicities less than 25 μg/mL are represented by **)
CN(C)[C@@H]1C(O)=C(C(N)=O)C(=O)[C@@]2(C#N)C(O)=C3C(=O)c4c(O)ccc(C#CC5(C#N)CCCCC5)c4C[C@@]3(N)C[C@@]12N [GA] | ** (toxicities less than 25 μg/mL are represented by **)
CN(C)[C@@H]1C(O)=C(C(N)=O)C(=O)[C@@]2(C#N)C(O)=C3C(=O)c4c(ccc(Nc5nc(-c6cccc([N+](=O)O)c6)cs5)c4O)[C@H](O)[C@@]3(N)[C@H](O)[C@@]12N [DV] | ** (toxicities less than 25 μg/mL are represented by **)
COc1ccc(CNC(C)C)cc1-c1ccc(O)c2c1C[C@@]1(N)C[C@@]3(N)[C@H](N(C)C)C(O)=C(C(N)=O)C(=O)[C@@]3(C#N)C(O)=C1C2=O [LS] | * (toxicities greater than >25 μg/ml are represented by *)
CC(=O)c1ccc(O)c2c1C[C@@]1(N)C[C@@]3(N)[C@H](N(C)C)C(O)=C(C(N)=O)C(=O)[C@@]3(C#N)C(O)=C1C2=O [GR] | * (toxicities greater than >25 μg/ml are represented by *)
CN(C)[C@@H]1C(O)=C(C(N)=O)C(=O)[C@@]2(C#N)C(O)=C3C(=O)c4c(O)c(C(C)(C)C)cc(CCC(=O)c5cccnc5)c4C[C@@]3(N)C[C@@]12N [ID] | * (toxicities greater than >25 μg/ml are represented by *)
CN(C)c1cc(NC(=O)Nc2cccc3ccccc23)c(O)c2c1C[C@@]1(N)C[C@@]3(N)[C@H](N(C)C)C(O)=C(C(N)=O)C(=O)[C@@]3(C#N)C(O)=C1C2=O [IA] | * (toxicities greater than >25 μg/ml are represented by *)
COc1cccc(C#Cc2cc(N(C)C)c3c(c2O)C(=O)C2=C(O)[C@]4(C#N)C(=O)C(C(N)=O)=C(O)[C@@H](N(C)C)[C@]4(N)C[C@]2(N)C3)c1 [JF] | ** (toxicities less than 25 μg/mL are represented by **)
CN(C)[C@@H]1C(O)=C(C(N)=O)C(=O)[C@@]2(C#N)C(O)=C3C(=O)c4c(O)c(CN)cc(-c5cccc([N+](=O)O)c5)c4C[C@@]3(N)C[C@@]12N [JP] | * (toxicities greater than >25 μg/ml are represented by *)
CN(C)[C@@H]1C(O)=C(C(N)=O)C(=O)[C@@]2(C#N)C(O)=C3C(=O)c4c(O)ccc(-c5ccccc5)c4C[C@@]3(N)C[C@@]12N [CX] | * (toxicities greater than >25 μg/ml are represented by *)
CCCCN(c1ccc2c(c1O)C(=O)C1=C(O)[C@]3(C#N)C(=O)C(C(N)=O)=C(O)[C@@H](N(C)C)[C@]3(N)[C@@H](O)[C@]1(N)[C@H]2N)C1CCN(C)CC1 [RX] | * (toxicities greater than >25 μg/ml are represented by *)
CN(C)c1cc(NCc2ccc([N+](=O)O)cc2)c(O)c2c1C[C@@]1(N)C[C@@]3(N)[C@H](N(C)C)C(O)=C(C(N)=O)C(=O)[C@@]3(C#N)C(O)=C1C2=O [VH] | ** (toxicities less than 25 μg/mL are represented by **)
Cc1ccc(CCc2ccc(O)c3c2CC2CC4[C@H](N(C)C)C(O)=C(C(N)=O)C(=O)[C@@]4(O)C(O)=C2C3=O)cc1 (some centres unmarked) [Compound HG] | ** (toxicities less than 25 μg/mL are represented by **)
CN(C)[C@@H]1C(O)=C(C(N)=O)C(=O)[C@@]2(C#N)C(O)=C3C(=O)c4c(O)c(CNC(=O)C5CC5)cc(-c5ccc(C(C)(C)C)cc5)c4C[C@@]3(N)C[C@@]12N [RM] | ** (toxicities less than 25 μg/mL are represented by **)
COc1cccc(C/C=C\c2ccc(O)c3c2C[C@@]2(N)C[C@@]4(N)[C@H](N(C)C)C(O)=C(C(N)=O)C(=O)[C@@]4(C#N)C(O)=C2C3=O)c1OC [HV] | ** (toxicities less than 25 μg/mL are represented by **)
CN(C)[C@@H]1C(O)=C(C(N)=O)C(=O)[C@@]2(C#N)C(O)=C3C(=O)c4c(O)ccc(C#CCCC#Cc5ccc(O)c6c5C[C@@]5(N)C[C@@]7(N)[C@H](N(C)C)C(O)=C(C(N)=O)C(=O)[C@@]7(C#N)C(O)=C5C6=O)c4C[C@@]3(N)C[C@@]12N [NC] | * (toxicities greater than >25 μg/ml are represented by *)
CN(C)c1cc(NCc2ccc([N+](=O)O)o2)c(O)c2c1C[C@@]1(N)C[C@@]3(N)[C@H](N(C)C)C(O)=C(C(N)=O)C(=O)[C@@]3(C#N)C(O)=C1C2=O [UH] | ** (toxicities less than 25 μg/mL are represented by **)
CC(=O)c1ccc(-c2cc(N(C)C)c3c(c2O)C(=O)C2=C(O)[C@]4(C#N)C(=O)C(C(N)=O)=C(O)[C@@H](N(C)C)[C@]4(N)C[C@]2(N)C3)cc1 [Compound HJ, 9-(4′-Acetylphenyl) Minocycline] | ** (toxicities less than 25 μg/mL are represented by **)

Compound | In Vitro Cytotoxicity
CN(C)[C@@H]1C(O)=C(C(N)=O)C(=O)[C@@]2(C#N)C(O)=C3C(=O)c4c(O)ccc(-c5cc(F)cc(F)c5)c4C[C@@]3(N)C[C@@]12N [PM] | ** (toxicities less than 25 μg/mL are represented by **)
CN(C)[C@@H]1C(O)=C(C(N)=O)C(=O)[C@@]2(C#N)C(O)=C3C(=O)c4c(O)ccc(-c5cccc(CN6CCOCC6)c5)c4C[C@@]3(N)C[C@@]12N [HS] | * (toxicities greater than >25 μg/ml are represented by *)
COC(=O)/C=C/c1ccc2c(c1O)C(=O)C1=C(O)[C@]3(C#N)C(=O)C(C(N)=O)=C(O)[C@@H](N(C)C)[C@]3(N)[C@@H](O)[C@]1(N)C2N (some centres unmarked) [AW] | ** (toxicities less than 25 μg/mL are represented by **)
CN(C)c1cc(CCc2ccc(F)cc2)c(O)c2c1C[C@@]1(N)C[C@@]3(N)[C@H](N(C)C)C(O)=C(C(N)=O)C(=O)[C@@]3(C#N)C(O)=C1C2=O [KF] | ** (toxicities less than 25 μg/mL are represented by **)
Cc1ccnc(-c2ccc(O)c3c2C[C@@]2(N)C[C@@]4(N)[C@H](N(C)C)C(O)=C(C(N)=O)C(=O)[C@@]4(C#N)C(O)=C2C3=O)c1 [VE] | ** (toxicities less than 25 μg/mL are represented by **)
CN(C)[C@@H]1C(O)=C(C(N)=O)C(=O)[C@@]2(C#N)C(O)=C3C(=O)c4c(ccc(CNCC(C)(C)C)c4O)[C@H](N)[C@@]3(N)[C@H](O)[C@@]12N [RP] | * (toxicities greater than >25 μg/ml are represented by *)
CC(C)c1cccc(-c2ccc(O)c3c2C[C@@]2(N)C[C@@]4(N)[C@H](N(C)C)C(O)=C(C(N)=O)C(=O)[C@@]4(C#N)C(O)=C2C3=O)c1 [OI] | ** (toxicities less than 25 μg/mL are represented by **)
CCCCCCOC(=O)NCc1cc(N(C)C)c2c(c1O)C(=O)C1=C(O)[C@]3(C#N)C(=O)C(C(N)=O)=C(O)[C@@H](N(C)C)[C@]3(N)C[C@]1(N)C2 [MS] | ** (toxicities less than 25 μg/mL are represented by **)
COC(=O)C(CO)NC(=O)c1cccc(-c2ccc(O)c3c2C[C@@]2(N)C[C@@]4(N)C(N(C)C)C(O)=C(C(N)=O)C(=O)[C@@]4(C#N)C(O)=C2C3=O)c1 (some centres unmarked) [QT] | ** (toxicities less than 25 μg/mL are represented by **)
CCC#Cc1ccc(O)c2c1C[C@@]1(N)C[C@@]3(N)[C@H](N(C)C)C(O)=C(C(N)=O)C(=O)[C@@]3(C#N)C(O)=C1C2=O [JW] | ** (toxicities less than 25 μg/mL are represented by **)
COc1ccc(C=O)cc1-c1ccc(O)c2c1C[C@@]1(N)C[C@@]3(N)[C@H](N(C)C)C(O)=C(C(N)=O)C(=O)[C@@]3(C#N)C(O)=C1C2=O [OW] | * (toxicities greater than >25 μg/ml are represented by *)
C#Cc1cc(N(C)C)c2c(c1O)C(=O)C1=C(O)[C@]3(C#N)C(=O)C(C(N)=O)=C(O)[C@@H](N(C)C)[C@]3(N)C[C@]1(N)C2 [DI] | ** (toxicities less than 25 μg/mL are represented by **)
CN(C)[C@@H]1C(O)=C(C(N)=O)C(=O)[C@@]2(C#N)C(O)=C3C(=O)c4c(ccc(/C=C/c5ccc(F)cc5)c4O)[C@H](N)[C@@]3(N)[C@H](O)[C@@]12N [CE] | ** (toxicities less than 25 μg/mL are represented by **)
CN(C)c1cc(CNC(=O)Nc2ccc(F)cc2)c(O)c2c1C[C@@]1(N)C[C@@]3(N)[C@H](N(C)C)C(O)=C(C(N)=O)C(=O)[C@@]3(C#N)C(O)=C1C2=O [MY] | ** (toxicities less than 25 μg/mL are represented by **)
COc1ccc(CNC2CCCCC2)cc1-c1ccc(O)c2c1C[C@@]1(N)C[C@@]3(N)[C@H](N(C)C)C(O)=C(C(N)=O)C(=O)[C@@]3(C#N)C(O)=C1C2=O [LQ] | * (toxicities greater than >25 μg/ml are represented by *)
CN(C)[C@@H]1C(O)=C(C(N)=O)C(=O)[C@@]2(C#N)C(O)=C3C(=O)c4c(O)ccc(C#Cc5cccc(C#N)c5)c4C[C@@]3(N)C[C@@]12N [GQ] | * (toxicities greater than >25 μg/ml are represented by *)
CN(C)[C@@H]1C(O)=C(C(N)=O)C(=O)[C@@]2(C#N)C(O)=C3C(=O)c4c(O)ccc(C#Cc5ccccc5)c4C[C@@]3(N)C[C@@]12N [FB] | ** (toxicities less than 25 μg/mL are represented by **)
CCCNCc1ccc(OC)c(-c2ccc(O)c3c2C[C@@]2(N)C[C@@]4(N)[C@H](N(C)C)C(O)=C(C(N)=O)C(=O)[C@@]4(C#N)C(O)=C2C3=O)c1 [LV] | * (toxicities greater than >25 μg/ml are represented by *)
CN(C)[C@@H]1C(O)=C(C(N)=O)C(=O)[C@@]2(C#N)C(O)=C3C(=O)c4c(ccc(C(C)(C)C)c4O)[C@H](N)[C@@]3(N)[C@H](O)[C@@]12N [BB] | ** (toxicities less than 25 μg/mL are represented by **)
CN(C)c1cc(NCc2ccc(C#N)cc2)c(O)c2c1C[C@@]1(N)C[C@@]3(N)[C@H](N(C)C)C(O)=C(C(N)=O)C(=O)[C@@]3(C#N)C(O)=C1C2=O [TU] | * (toxicities greater than >25 μg/ml are represented by *)
